# Experimental data as given in ChEMBL document CHEMBL4411285, “Design, synthesis, in silico pharmacokinetics prediction and biological evaluation of 1,4-dihydroindeno[1,2-c]pyrazole chalcone as EGFR /Akt pathway inhibitors” (Eur J Med Chem, 2019).
# Calls of active or inactive are those of the source. The rule behind the calls is not given here.
# Tests used:
# [1] = test system: MDA-MB-231; assay: Cytotoxicity against human MDA-MB-231 cells after 24 hrs by MTT assay; format: functional, cell-based; conditions: MDA-MB-231, 24 h
# [2] = test system: MCF7; assay: Cytotoxicity against human MCF7 cells after 24 hrs by MTT assay; format: functional, cell-based; conditions: MCF7, 24 h
# [3] = test system: SK-BR-3; assay: Cytotoxicity against human SKBR3 cells after 24 hrs by MTT assay; format: functional, cell-based; conditions: SK-BR-3, 24 h
# [4] = test system: HCT-116; assay: Cytotoxicity against human HCT116 cells after 24 hrs by MTT assay; format: functional, cell-based; conditions: HCT-116, 24 h
# [5] = test system: A549; assay: Cytotoxicity against human A549 cells after 24 hrs by MTT assay; format: functional, cell-based; conditions: A549, 24 h
# [6] = test system: HEK-293T; assay: Cytotoxicity against human HEK293T cells after 24 hrs by MTT assay; format: cell-based
# [7] = test system: A549; assay: Cell cycle arrest in human A549 cells assessed as accumulation of cells at sub G1 phase at 10 uM after 24 hrs by propidium iodide staining-based flow cytometric analysis (reference value: 0.52%); format: functional
# [8] = test system: A549; assay: Cell cycle arrest in human A549 cells assessed as accumulation of cells at G0/G1 phase at 10 uM after 24 hrs by propidium iodide staining-based flow cytometric analysis (reference value: 71.1%); format: functional
# [9] = test system: A549; assay: Cell cycle arrest in human A549 cells assessed as accumulation of cells at S phase at 10 uM after 24 hrs by propidium iodide staining-based flow cytometric analysis (reference value: 6.22%); format: functional
# [10] = test system: A549; assay: Cell cycle arrest in human A549 cells assessed as accumulation of cells at G2/M phase at 10 uM after 24 hrs by propidium iodide staining-based flow cytometric analysis (reference value: 21.7%); format: functional
# [11] = test system: A549; assay: Induction of apoptosis in human A549 cells assessed as increase in BAX expression at 10 uM after 24 hrs by Western blot analysis; format: functional, cell-based
# [12] = test system: A549; assay: Induction of apoptosis in human A549 cells assessed as decrease in Bcl-2 expression at 10 uM after 24 hrs by Western blot analysis; format: functional, cell-based
# [13] = test system: A549; assay: Induction of apoptosis in human A549 cells assessed as increase in TP53 expression at 10 uM after 24 hrs by Western blot analysis; format: functional, cell-based
# [14] = test system: A549; assay: Downregulation of EGFR expression in human A549 cells at 10 uM after 24 hrs by Hoechst staining-based fluorescence assay; format: functional, cell-based
# [15] = test system: A549; assay: Downregulation of AKT expression in human A549 cells at 10 uM after 24 hrs by Hoechst staining-based immunocytochemistry; format: functional, cell-based
# [16] = test system: A549; assay: Inhibition of 3-D spheroids cell growth in human A549 cells at 10 uM after 25 days by crystal violet staining-based immunocytochemistry; format: functional
# [17] = target: Tubulin (Homo sapiens) (UniProt P68371+Q9H4B7+P0DPH7+P68366+Q13509+Q71U36+P04350+Q3ZCM7+P07437+P68363+Q9BQE3+Q6PEY2+Q13885+Q9BVA1+Q9BUF5); assay: Inhibition of tubulin network in human A549 cells at 10 uM after 24 hrs by Hoechst 33342 staining-based confocal microscopic analysis; format: cell-based
SMILES,IC50 [1],IC50 [2],IC50 [3],IC50 [4],IC50 [5],IC50 [6],Activity [7],Activity [8],Activity [9],Activity [10],Activity [11],Activity [12],Activity [13],Activity [14],Activity [15],growth inhibition (GI) [16],inhibition [17]
COc1ccc2c(c1)-c1n[nH]c(/C=C/C(=O)c3ccc4c(c3)OCO4)c1C2,9.31 µM,9.99 µM,12.5 µM,13.7 µM,12.4 µM,54 µM,–,–,–,–,–,–,–,–,–,–,–
COc1ccc(C(=O)/C=C/c2[nH]nc3c2Cc2cc(OC)c(OC)cc2-3)cc1OC,3.82 µM,6.94 µM,5.11 µM,6.66 µM,5.21 µM,46 µM,5.27%,45.9%,7.62%,40.6%,Active,Active,Active,Active,Active,Active,Active
COc1ccc2c(c1)-c1n[nH]c(/C=C/C(=O)c3ccc(N)cc3)c1C2,11.9 µM,11.2 µM,12.5 µM,19.8 µM,11.3 µM,19 µM,–,–,–,–,–,–,–,–,–,–,–
COc1cc2c(cc1OC)-c1n[nH]c(/C=C/C(=O)c3ccc(N)cc3)c1C2,6.4 µM,7.5 µM,9.23 µM,8.34 µM,9.73 µM,20 µM,–,–,–,–,–,–,–,–,–,–,–
COc1ccc2c(c1)-c1n[nH]c(/C=C/C(=O)c3cc(OC)c(OC)c(OC)c3)c1C2,5.89 µM,6.55 µM,4.79 µM,6.85 µM,3.82 µM,32 µM,2.36%,59.5%,7.99%,29.6%,Active,Active,Active,Active,Active,Active,Active
COc1cc(C(=O)/C=C/c2[nH]nc3c2Cc2ccccc2-3)cc(OC)c1OC,5.52 µM,8.49 µM,8.64 µM,12.8 µM,10.9 µM,25 µM,–,–,–,–,–,–,–,–,–,–,–
COc1ccc(C(=O)/C=C/c2[nH]nc3c2Cc2cc(OC)c(OC)cc2-3)cc1,6.54 µM,6.99 µM,8.52 µM,11.6 µM,9.88 µM,23 µM,–,–,–,–,–,–,–,–,–,–,–
COc1cc2c(cc1OC)-c1n[nH]c(/C=C/C(=O)c3ccc4c(c3)OCO4)c1C2,5.28 µM,6.9 µM,8.12 µM,11.6 µM,11.9 µM,18 µM,–,–,–,–,–,–,–,–,–,–,–
COc1ccc(C(=O)/C=C/c2[nH]nc3c2Cc2ccccc2-3)cc1,10.1 µM,11.5 µM,14.7 µM,10.8 µM,14.3 µM,21 µM,–,–,–,–,–,–,–,–,–,–,–
COc1ccc(C(=O)/C=C/c2[nH]nc3c2Cc2ccc(OC)cc2-3)cc1,6.21 µM,9.18 µM,10.2 µM,13.2 µM,13.3 µM,45 µM,–,–,–,–,–,–,–,–,–,–,–
COc1ccc(C(=O)/C=C/c2[nH]nc3c2Cc2ccccc2-3)cc1OC,6.82 µM,10.1 µM,11.4 µM,20.5 µM,13.4 µM,38 µM,–,–,–,–,–,–,–,–,–,–,–
COc1cc2c(cc1OC)-c1n[nH]c(/C=C/C(=O)c3cc(OC)c(OC)c(OC)c3)c1C2,6.03 µM,6.83 µM,4.97 µM,5.9 µM,4.33 µM,29 µM,5.16%,51.1%,9.36%,33.7%,Active,Active,Active,Active,Active,Active,Active
COc1ccc2c(c1)-c1n[nH]c(/C=C/C(=O)c3ccc(OC)c(OC)c3)c1C2,4.48 µM,7.99 µM,9.22 µM,12.2 µM,10.4 µM,33 µM,–,–,–,–,–,–,–,–,–,–,–
Nc1ccc(C(=O)/C=C/c2[nH]nc3c2Cc2ccccc2-3)cc1,5.66 µM,8.35 µM,7.47 µM,14.9 µM,11.5 µM,35 µM,–,–,–,–,–,–,–,–,–,–,–
C#Cc1cccc(Nc2ncnc3cc(OCCOC)c(OCCOC)cc23)c1 [ERLOTINIB],0.05 µM,12.4 µM,3.98 µM,7.31 µM,–,73 µM,1.71%,64.1%,7.72%,26%,Active,Active,Active,Active,Active,–,–
O=C(/C=C/c1[nH]nc2c1Cc1ccccc1-2)c1ccc2c(c1)OCO2,14.5 µM,12.4 µM,17.3 µM,13.8 µM,16 µM,17 µM,–,–,–,–,–,–,–,–,–,–,–
